# US20140213648A1, “METHODS OF INCREASING EPA BLOOD LEVELS” (priority 2012, published 2014)
# Experiment: 12-week placebo-controlled study: red blood cell fatty acid concentrations, ratios and proportions (GC/FID)
# Assay type: in vivo, human
# Conditions: for AA red blood cell concentration, change from baseline (LS mean (SE)) / AA red blood cell concentration, end-of-treatment (mean) / DHA red blood cell concentration, change from baseline (LS mean (SE)) / DHA red blood cell concentration, end-of-treatment (mean) / Linoleic red blood cell concentration, change from baseline (LS mean (SE)) / Linoleic red blood cell concentration, end-of-treatment (mean) / Oleic red blood cell concentration, change from baseline (LS mean (SE)) / Oleic red blood cell concentration, end-of-treatment (mean) / Palmitic red blood cell concentration, change from baseline (LS mean (SE)) / Palmitic red blood cell concentration, end-of-treatment (mean) / Proportion of monounsaturated fatty acids to total fatty acids in RBCs, change from baseline (LS mean (SE)) / Proportion of monounsaturated fatty acids to total fatty acids in RBCs, end-of-treatment (mean (SD)) / Proportion of saturated fatty acids to total fatty acids in RBCs, change from baseline (LS mean (SE)) / Proportion of saturated fatty acids to total fatty acids in RBCs, end-of-treatment (mean (SD)) / Proportion of total omega-3 fatty acids to total fatty acids in RBCs, change from baseline (LS mean (SE)) / Proportion of total omega-3 fatty acids to total fatty acids in RBCs, end-of-treatment (mean (SD)) / Proportion of total omega-6 fatty acids to total fatty acids in RBCs, change from baseline (LS mean (SE)) / Proportion of total omega-6 fatty acids to total fatty acids in RBCs, end-of-treatment (mean (SD)) / Ratio of AA/EPA in red blood cells, change from baseline (LS mean (SE)) / Ratio of AA/EPA in red blood cells, end-of-treatment (mean) / Ratio of n-3/n-6 FA in red blood cells, change from baseline (LS mean (SE)) / Ratio of n-3/n-6 FA in red blood cells, end-of-treatment (mean) / Stearic red blood cell concentration, change from baseline (LS mean (SE)) / Stearic red blood cell concentration, end-of-treatment (mean): week 12
# Experimental: A multi-center, placebo-controlled randomized, double-blind, 12-week study with an open-label extension is performed to evaluate the efficacy and safety of AMR101 in patients with fasting triglyceride levels ≧500 mg/dL. The primary objective of the study is to determine the efficacy of AMR101 2 g daily and 4 g daily, compared to placebo, in lowering fasting TG levels in patients with fasting TG levels ≧500 mg/dL and ≦1500 mg/dL (≧5.65 mmol/L and ≦16.94 mmol/L).
# Eligible patients will be randomly assigned at Visit 4 (Week 0) to receive orally AMR101 2 g daily, AMR101 4 g daily, or placebo for the 12-week double-blind treatment period. AMR101 is provided in 1 g liquid-filled, oblong, gelatin capsules. The matching placebo capsule is filled with light liquid paraffin and contains 0 g of AMR101. During the double-blind treatment period, patients will take 2 capsules (AMR101 or matching placebo) in the morning and 2 in the evening for a total of 4 capsules per day. Patients in the AMR101 2 g/day treatment group will receive 1 AMR101 1 g capsule and 1 matching placebo capsule in the morning and in the evening. Patients in the AMR101 4 g/day treatment group will receive 2 AMR101 1 g capsules in the morning and evening.
# Lipids were extracted from plasma and RBC suspensions and converted into fatty acid methyl esters for analysis using a standard validated gas chromatography/flame ionization detection method. Fatty acid parameters were compared between EPA treatment groups and placebo using an ANCOVA model with treatment, gender, type of statin therapy, and presence of diabetes as factors, and the baseline parameter value as a covariate. LSMs, SEs, and 2-tailed 95% confidence intervals for each treatment group and for each comparison were determined.
# [1] = 2 g/day vs placebo, week 12, P <0.0001
# [2] = 4 g/day vs placebo, week 12, P <0.0001
smiles,measurement,setting,value
"CC/C=C\C/C=C\C/C=C\C/C=C\C/C=C\CCCC(=O)OCC [IPE, Icosapent ethyl]",Dose dependence of EPA concentration in RBCs (in words),"2 g/day or 4 g/day, 12 weeks","significantly increased EPA concentrations in a linear, dose-dependent fashion"
same,"AA red blood cell concentration, mean placebo-adjusted percent change from baseline","2 g/day vs placebo, week 12, P 0.0008",−8.0%
same,"Proportion of total omega-6 fatty acids to total fatty acids in RBCs, mean placebo-adjusted percent change from baseline","2 g/day vs placebo, week 12, P 0.0014",−13.2%
same,"Proportion of monounsaturated fatty acids to total fatty acids in RBCs, mean placebo-adjusted percent change from baseline","2 g/day vs placebo, week 12, P 0.0435",−3.1%
same,"Proportion of total omega-3 fatty acids to total fatty acids in RBCs, mean placebo-adjusted percent change from baseline","2 g/day vs placebo, week 12, P 0.1183",23.8%
same,"Linoleic red blood cell concentration, mean placebo-adjusted percent change from baseline","2 g/day vs placebo, week 12, P 0.1278",−4.7%
same,"Proportion of saturated fatty acids to total fatty acids in RBCs, mean placebo-adjusted percent change from baseline","2 g/day vs placebo, week 12, P 0.3278",1.1%
same,"Oleic red blood cell concentration, mean placebo-adjusted percent change from baseline","2 g/day vs placebo, week 12, P 0.3736",−2.1%
same,"DHA red blood cell concentration, mean placebo-adjusted percent change from baseline","2 g/day vs placebo, week 12, P 0.5859",−1.8%
same,"Stearic red blood cell concentration, mean placebo-adjusted percent change from baseline","2 g/day vs placebo, week 12, P 0.5886",1.1%
same,"Palmitic red blood cell concentration, mean placebo-adjusted percent change from baseline","2 g/day vs placebo, week 12, P 0.9465",−0.1%
same,"Ratio of AA/EPA in red blood cells, mean placebo-adjusted percent change from baseline",[1],−91.1%
same,"Ratio of n-3/n-6 FA in red blood cells, mean placebo-adjusted percent change from baseline",[1],65.5%
same,"AA red blood cell concentration, change from baseline (LS mean (SE))",2 g/day,−20.9 (3.2)
same,"AA red blood cell concentration, end-of-treatment (mean)",2 g/day,160.3
same,"DHA red blood cell concentration, change from baseline (LS mean (SE))",2 g/day,−7.3 (1.5)
same,"DHA red blood cell concentration, end-of-treatment (mean)",2 g/day,51.5
same,"Linoleic red blood cell concentration, change from baseline (LS mean (SE))",2 g/day,−10.7 (4.7)
same,"Linoleic red blood cell concentration, end-of-treatment (mean)",2 g/day,169.6
same,"Oleic red blood cell concentration, change from baseline (LS mean (SE))",2 g/day,−1.4 (4.1)
same,"Oleic red blood cell concentration, end-of-treatment (mean)",2 g/day,213.0
same,"Palmitic red blood cell concentration, change from baseline (LS mean (SE))",2 g/day,−2.9 (5.4)
same,"Palmitic red blood cell concentration, end-of-treatment (mean)",2 g/day,341.7
same,"Proportion of monounsaturated fatty acids to total fatty acids in RBCs, change from baseline (LS mean (SE))",2 g/day,−0.1 (0.3) mol %
same,"Proportion of monounsaturated fatty acids to total fatty acids in RBCs, end-of-treatment (mean (SD))",2 g/day,20.0 (1.9) mol %
same,"Proportion of saturated fatty acids to total fatty acids in RBCs, change from baseline (LS mean (SE))",2 g/day,0.3 (0.4) mol %
same,"Proportion of saturated fatty acids to total fatty acids in RBCs, end-of-treatment (mean (SD))",2 g/day,44.4 (3.0) mol %
same,"Proportion of total omega-3 fatty acids to total fatty acids in RBCs, change from baseline (LS mean (SE))",2 g/day,2.6 (0.3) mol %
same,"Proportion of total omega-3 fatty acids to total fatty acids in RBCs, end-of-treatment (mean (SD))",2 g/day,8.7 (2.2) mol %
same,"Proportion of total omega-6 fatty acids to total fatty acids in RBCs, change from baseline (LS mean (SE))",2 g/day,−2.9 (0.4) mol %
same,"Proportion of total omega-6 fatty acids to total fatty acids in RBCs, end-of-treatment (mean (SD))",2 g/day,27.0 (3.3) mol %
same,"Ratio of AA/EPA in red blood cells, change from baseline (LS mean (SE))",2 g/day,−17.7 (0.9)
same,"Ratio of AA/EPA in red blood cells, end-of-treatment (mean)",2 g/day,5.2
same,"Ratio of n-3/n-6 FA in red blood cells, change from baseline (LS mean (SE))",2 g/day,0.12 (0.010)
same,"Ratio of n-3/n-6 FA in red blood cells, end-of-treatment (mean)",2 g/day,0.33
same,"Stearic red blood cell concentration, change from baseline (LS mean (SE))",2 g/day,−4.7 (2.9)
same,"Stearic red blood cell concentration, end-of-treatment (mean)",2 g/day,179.0
same,"Proportion of total omega-3 fatty acids to total fatty acids in RBCs, mean placebo-adjusted percent change from baseline","4 g/day vs placebo, week 12, P 0.0008",53.4%
same,"Proportion of monounsaturated fatty acids to total fatty acids in RBCs, mean placebo-adjusted percent change from baseline","4 g/day vs placebo, week 12, P 0.0154",−3.9%
same,"Proportion of saturated fatty acids to total fatty acids in RBCs, mean placebo-adjusted percent change from baseline","4 g/day vs placebo, week 12, P 0.1145",1.9%
same,"DHA red blood cell concentration, mean placebo-adjusted percent change from baseline","4 g/day vs placebo, week 12, P 0.1216",−5.2%
same,"Oleic red blood cell concentration, mean placebo-adjusted percent change from baseline","4 g/day vs placebo, week 12, P 0.1325",−3.7%
same,"Palmitic red blood cell concentration, mean placebo-adjusted percent change from baseline","4 g/day vs placebo, week 12, P 0.7427",−0.7%
same,"Stearic red blood cell concentration, mean placebo-adjusted percent change from baseline","4 g/day vs placebo, week 12, P 0.7565",−0.7%
same,"AA red blood cell concentration, mean placebo-adjusted percent change from baseline",[2],−15.7%
same,"Linoleic red blood cell concentration, mean placebo-adjusted percent change from baseline",[2],−13.0%
same,"Proportion of total omega-6 fatty acids to total fatty acids in RBCs, mean placebo-adjusted percent change from baseline",[2],−17.3%
same,"Ratio of AA/EPA in red blood cells, mean placebo-adjusted percent change from baseline",[2],−102%
same,"Ratio of n-3/n-6 FA in red blood cells, mean placebo-adjusted percent change from baseline",[2],106.9%
same,"AA red blood cell concentration, change from baseline (LS mean (SE))",4 g/day,−36.2 (3.4)
same,"AA red blood cell concentration, end-of-treatment (mean)",4 g/day,148.8
same,"DHA red blood cell concentration, change from baseline (LS mean (SE))",4 g/day,−9.7 (1.6)
same,"DHA red blood cell concentration, end-of-treatment (mean)",4 g/day,51.7
same,"Linoleic red blood cell concentration, change from baseline (LS mean (SE))",4 g/day,−25.0 (4.9)
same,"Linoleic red blood cell concentration, end-of-treatment (mean)",4 g/day,164.7
same,"Oleic red blood cell concentration, change from baseline (LS mean (SE))",4 g/day,−5.6 (4.1)
same,"Oleic red blood cell concentration, end-of-treatment (mean)",4 g/day,208.3
same,"Palmitic red blood cell concentration, change from baseline (LS mean (SE))",4 g/day,−5.8 (5.7)
same,"Palmitic red blood cell concentration, end-of-treatment (mean)",4 g/day,340.6
same,"Proportion of monounsaturated fatty acids to total fatty acids in RBCs, change from baseline (LS mean (SE))",4 g/day,−0.2 (0.3) mol %
same,"Proportion of monounsaturated fatty acids to total fatty acids in RBCs, end-of-treatment (mean (SD))",4 g/day,19.5 (1.9) mol %
same,"Proportion of saturated fatty acids to total fatty acids in RBCs, change from baseline (LS mean (SE))",4 g/day,0.6 (0.4) mol %
same,"Proportion of saturated fatty acids to total fatty acids in RBCs, end-of-treatment (mean (SD))",4 g/day,44.5 (2.5) mol %
same,"Proportion of total omega-3 fatty acids to total fatty acids in RBCs, change from baseline (LS mean (SE))",4 g/day,4.1 (0.3) mol %
same,"Proportion of total omega-3 fatty acids to total fatty acids in RBCs, end-of-treatment (mean (SD))",4 g/day,10.4 (2.3) mol %
same,"Proportion of total omega-6 fatty acids to total fatty acids in RBCs, change from baseline (LS mean (SE))",4 g/day,−4.7 (0.5) mol %
same,"Proportion of total omega-6 fatty acids to total fatty acids in RBCs, end-of-treatment (mean (SD))",4 g/day,25.5 (2.9) mol %
same,"Ratio of AA/EPA in red blood cells, change from baseline (LS mean (SE))",4 g/day,−19.9 (1.0)
same,"Ratio of AA/EPA in red blood cells, end-of-treatment (mean)",4 g/day,3.1
same,"Ratio of n-3/n-6 FA in red blood cells, change from baseline (LS mean (SE))",4 g/day,0.20 (0.011)
same,"Ratio of n-3/n-6 FA in red blood cells, end-of-treatment (mean)",4 g/day,0.42
same,"Stearic red blood cell concentration, change from baseline (LS mean (SE))",4 g/day,−8.2 (3.1)
same,"Stearic red blood cell concentration, end-of-treatment (mean)",4 g/day,178.1
